From patent publication US11857663B2, “Stable silk protein fragment compositions” (Evolved By Nature, Inc., priority 2013, dated 2024)

Assay: HPLC chromatograms of samples comprising vitamin C (degradation products)
Type: physicochemical
Conditions: after 1 hour at ambient conditions without chemical stabilization
Procedure: FIGS. 36A and 36B show two HPLC chromatograms from samples comprising vitamin C. […] No degradation products were visible. FIG. 59 is a table summarizing the vitamin C concentration in silk protein fragment-films (2% silk films air dried at RT) of the present disclosure. In FIG. 59 processing conditions included 100° C. extraction for 20 min, RT rinse, LiBr in 60° C. oven for 4-6 hours. FIG. 60 is arable summarizing the stability of vitamin C in chemically stabilized solutions. FIGS. 89A-89B are tables summarizing vitamin C stability in SPF gels without chemical stabilizers as compared to chemically stabilized vitamin C in competitive anti-aging skincare products. […] Without wishing to be bound by theory, it appears there is a relationship between vitamin C concentration, silk concentration, and gelation. An increase in vitamin C at a given concentration of silk will result in a longer time to gelation or inhibit gelation. This may be due to the vitamin C molecule physically blocking interaction between silk protein fragments or cross-linking of silk protein.

O=C1O[C@H]([C@@H](O)CO)C(O)=C1O [vitamin C, L-ascorbic acid]
degradation products of vitamin C: degradation products are visible
